# Values of other authors as cited in article PMC4078388 (EJNMMI Research, 2014).
# Test system: INS-1 tumour
# Settings: Balb/c nude mice, 1 h after injection
# Text: One additional challenge when imaging β-cells is the limited amount of overall GLP-1 receptors available which requires the administration of low amounts of peptide with a high specific activity in order to avoid receptor blocking [[13]]. One potential way to further increase the specific activity and therefore reduce the amount of tracer necessary to obtain a clear image is to attach several chelators to the peptide allowing more radioactivity per molecule.
substance,measurement,value
[Lys^40(^68Ga-DOTA)]exendin-3,uptake in INS-1 tumour,8.9 ± 3.1 %iA/g
same,uptake in the pancreas,6.7 ± 1.8 %iA/g
